In BigSolDB 2.1:

O=S(=O)([O-])Oc1ccc(C(c2ccc(OS(=O)(=O)[O-])cc2)c2ccccn2)cc1.[Na+].[Na+]
solubility (mole fraction)
Details | in DMF | in DMSO | in acetic acid | in acetonitrile | in ethanol | in methanol | in n-butanol | in n-propanol | in water
298.15 K | 0.0269 | 0.0049 | 0.0014 | 0.0001 | 0.0011 | 0.0096 | 0.0001 | 0.0002 | 0.0215
303.15 K | 0.0321 | 0.0058 | 0.0019 | 0.0001 | 0.0015 | 0.0116 | 0.0002 | 0.0004 | 0.0252
308.15 K | 0.0387 | 0.0069 | 0.0025 | 0.0003 | 0.0021 | 0.0142 | 0.0005 | 0.0007 | 0.0299
313.15 K | 0.0463 | 0.0083 | 0.0034 | 0.0005 | 0.003 | 0.0178 | 0.0011 | 0.0014 | 0.0347
318.15 K | 0.0561 | 0.0099 | 0.0046 | 0.001 | 0.0041 | 0.0213 | 0.0022 | 0.0028 | 0.0398
